A short description of data set [1]: NOVARTIS: Cytotoxicity against human hepatocellular carcinoma cell line (Huh7). The data set is classed as toxicity, cell-based, Huh-7. As to conditions: Huh7 cells (hepatocellular carcinoma cell line).
The test system of data set [2] is Plasmodium falciparum. Description: NOVARTIS: Inhibition of Plasmodium falciparum 3D7 (drug-susceptible) proliferation in erythrocyte-based infection assay. The class given is functional, organism-based. Conditions: Plasmodium falciparum, 3D7.
Data set [3] relates to Plasmodium falciparum. Description: NOVARTIS: Inhibition of Plasmodium falciparum W2 (drug-resistant) proliferation in erythrocyte-based infection assay. The class given is functional, organism-based. As to conditions: Plasmodium falciparum, W2; read-out: EC50.

Molecules are shown by their SMILES. A value given as a limit tells only on which side of the number the result lay.

A word on the CC50: it is the concentration at which the toxic effect on the cells reaches its halfway point. A lower CC50 goes with greater toxicity to the cells. The term EC50 denotes the concentration needed to bring the measured effect to its halfway point.

On to `O=C(Nc1ccc(Cl)c(Cl)c1)Nc1ccc(Cl)c(Cl)c1`, for which it took 20.2 µM to reach half-maximal cytotoxicity in data set [1] (CC50). The values for the EC50 in the data set with Plasmodium falciparum [2] and in the data set with Plasmodium falciparum [3] were 1.03 µM and 0.46 µM, respectively.
In the same order, the values of `Cc1ccc(S(=O)(=O)NC(=O)Nc2ccc(N(C)C)cc2)cc1` are 20.4 µM, 0.324 µM and 0.467 µM.
As to `CCN1/C(=C/c2sc3ccccc3[n+]2CC)C=Cc2cc(NC(C)=O)ccc21`, the CC50 in data set [1] was more than 10 µM. The results for the EC50 in the data set with Plasmodium falciparum [2] and with Plasmodium falciparum [3] were 0.255 µM and 0.225 µM, respectively.
The corresponding values for `COc1ccc(OCC(=O)Nc2cccc(NC(=O)COc3ccc(OC)cc3)n2)cc1` are more than 100 µM, 6.84 µM and 2.29 µM.
In the same order, the values of `O=C(c1ccc(-n2c(SCc3ccc(Cl)cc3)nc3ccccc3c2=O)cc1)N1CCOCC1` are more than 100 µM, more than 12.5 µM and 2.28 µM.
In the same order, the values of `COc1cc(OC)nc(C(Sc2ccc(NC(=O)c3cccs3)cc2)c2ccccc2)n1` (stereo not given) are more than 10 µM, 0.175 µM and 0.225 µM.
`CCOC(=O)C1=C(c2ccccc2)N=c2sc(=Cc3cc(C)n(-c4ccc(F)cc4)c3C)c(=O)n2C1c1cccc(OC)c1OC` (stereo not given): in data set [1], the CC50 is more than 100 µM. The results for the EC50 in the data set with Plasmodium falciparum [2] and in the data set on Plasmodium falciparum [3] were 2.33 µM and 2.28 µM, respectively.
For the molecule `COc1ccc(-c2nc(NC(=O)CS(=O)(=O)c3ccccc3)sc2C)cc1`, the CC50 in data set [1] is more than 100 µM. Also, the EC50 in the data set on Plasmodium falciparum [2] turned out to be 0.505 µM; with Plasmodium falciparum [3] it was 2.31 µM.
In the same order, the values of `CN1CCN(NC=C2C(=O)N(c3nc4ccccc4s3)N=C2c2ccccc2)CC1` are more than 100 µM, more than 12.5 µM and 2.3 µM.
In the same order, the values of `COc1ccc(C=C2SC(=N)N(c3ccc4c(c3)OCO4)C2=O)cc1OC` are more than 100 µM, more than 9.75 µM and 2.28 µM.
As to `O=[N+]([O-])c1ccc(-c2ccc(C=NNc3ccccn3)o2)cc1`, the CC50 in data set [1] is more than 100 µM. Further, the EC50 in the data set on Plasmodium falciparum [2] amounted to 2.43 µM; in the data set on Plasmodium falciparum [3], 2.29 µM.
`COc1ccc([N+](=O)[O-])cc1-c1ccc(C=C(C#N)c2nn(CCO)c(N)c2C#N)o1` returned a CC50 in data set [1] of more than 100 µM. The EC50 in the data set with Plasmodium falciparum [2] is more than 12.5 µM; with Plasmodium falciparum [3], 2.29 µM.
The corresponding values for `C=CCNC(=O)c1cc2c(=O)n3ccccc3nc2n(CCc2ccccc2)c1=N` are more than 100 µM, 1.53 µM and 2.31 µM.
In the same order, the values of `COc1ccccc1/C=C/C1=NC(=C\c2ccc(SC)cc2)/C(=O)O1` are more than 10 µM, more than 1.25 µM and 0.228 µM.
In the same order, the values of `FC(F)(F)c1ccccc1CN1CCc2nc(N3CCCCC3)sc2C1` are more than 10 µM, 0.253 µM and 0.228 µM.
With `O=C(C[n+]1cc(-c2ccc(F)cc2)n2c1CCC2)Nc1ccc(Cl)cc1`, the CC50 in data set [1] was more than 100 µM. The results for the EC50 in the data set on Plasmodium falciparum [2] and in the data set on Plasmodium falciparum [3] were 2.88 µM and 2.3 µM, respectively.
In the same order, the values of `CC1CCN(c2ncnc3sc4c(c23)CCC(C)C4)CC1` (stereo not given) are more than 100 µM, 1.05 µM and 2.3 µM.
The corresponding values for `O=C(NCc1ccc(Cl)cc1)C1CNCC1c1ccc(C(F)(F)F)cc1` (stereo not given) are 18.2 µM, 0.392 µM and 0.412 µM.
The corresponding values for `COc1ccccc1CNC(=O)C1c2ccccc2C(=O)N2CCc3ccccc3C12` (stereo not given) are more than 100 µM, 4.9 µM and 2.25 µM.
`CN(CCCNc1ccnc2cc(Cl)ccc12)C(=O)C(C)(C)C`: the CC50 in data set [1] was more than 10 µM. For the same molecule, the values for the EC50 in the data set with Plasmodium falciparum [2] and in the data set with Plasmodium falciparum [3] were 0.203 µM and 0.225 µM, respectively.
Consider `Cc1ccc2nc3nc4c(C)cccc4c(N)c3cc2c1`, for which, in data set [1], half-maximal cytotoxicity (CC50) was put at 6.94 µM. Further, the EC50 came to 0.102 µM in the data set on Plasmodium falciparum [2] and 0.157 µM in the data set with Plasmodium falciparum [3].
On to `Oc1ccc(Cl)cc1C1CC(c2ccc(Cl)cc2)=NC(c2ccc(Cl)cc2)N1` (stereo not given), for which half-maximal cytotoxicity in data set [1] (CC50) was put at 34.7 µM. The EC50 in the data set on Plasmodium falciparum [2] amounted to 0.813 µM; in the data set with Plasmodium falciparum [3] it was 0.783 µM.
In the same order, the values of `CC(=O)Nc1cccc(-c2cncc(-c3ccc(C(=O)O)cc3)n2)c1` are more than 100 µM, 1.15 µM and 2.25 µM.
In the same order, the values of `Brc1cccc(CNC2CCN(CCc3ccccc3)CC2)c1` are 22.9 µM, 0.31 µM and 0.515 µM.
On to `C=CCOc1cccc(C(Nc2cccc(C)n2)c2ccc3cccnc3c2O)c1` (stereo not given), for which, in data set [1], the CC50 was more than 69.4 µM. Also, the EC50 was determined as 5.75 µM in the data set on Plasmodium falciparum [2] and 1.56 µM with Plasmodium falciparum [3].
Turning to `CCCC(=O)Oc1ccccc1-c1nc2ccccn2c1NC(C)(C)CC(C)(C)C`, half-maximal cytotoxicity in data set [1] (CC50) was put at 1.96 µM. Moreover, the figures for the 50% effective concentration (EC50) in the data set on Plasmodium falciparum [2] and in the data set with Plasmodium falciparum [3] were 0.793 µM and 0.044 µM, respectively.
In the same order, the values of `CC(=O)NC(=Cc1ccc(OC(F)F)cc1)C(=O)O` are more than 100 µM, more than 12.5 µM and 2.27 µM.
In the same order, the values of `Cc1cc(Nc2ccc(N(C)C)cc2)n2ncnc2n1` are more than 100 µM, 6 µM and 2.27 µM.
The corresponding values for `CN(C)CCNc1ncnc2c1[nH]c1ccc(Br)cc12` are 21.1 µM, 0.1 µM and 0.476 µM.
For the molecule `Cc1cccc(CCNc2cc(C)nc3nc(C)nn23)c1`, the CC50 in data set [1] was more than 100 µM. The EC50 in the data set on Plasmodium falciparum [2] amounted to 2.42 µM; in the data set on Plasmodium falciparum [3], 2.29 µM.
In turn, `Cc1ccc(-c2nnc(SCCCC(=O)NC(Cc3ccccc3)c3ccccc3)n2-c2cccc(Cl)c2)cc1` (stereo not given) had a CC50 in data set [1] of more than 27.6 µM. Further, the results for the half-maximal effective concentration (EC50) in the data set with Plasmodium falciparum [2] and in the data set with Plasmodium falciparum [3] were more than 12.5 µM and 0.621 µM, respectively.
In the same order, the values of `CC(=O)Nc1nc(C)c(-c2csc(Nc3ccc(Br)cc3)n2)s1` are 38.1 µM, 0.696 µM and 0.859 µM.
In data set [1], `COc1ccc(Nc2ccccc2NC(=O)c2cccc(N(C)C)c2)cc1` displayed a CC50 of more than 100 µM. Moreover, the values for the EC50 with Plasmodium falciparum [2] and in the data set with Plasmodium falciparum [3] were 2.45 µM and 2.29 µM, respectively.
The corresponding values for `COC(=O)c1ccc(Nc2nc(NCc3ccco3)c3ccccc3n2)cc1` are 18.8 µM, 0.279 µM and 0.433 µM.
In the case of `Cc1ccc(C(=O)N(C)CCCNc2ccnc3cc(Cl)ccc23)cc1`, the cytotoxic concentration (CC50) in data set [1] came to 5.37 µM. For the same molecule, the EC50 was determined as 0.141 µM in the data set on Plasmodium falciparum [2] and 0.122 µM in the data set on Plasmodium falciparum [3].
For the molecule `OCCc1cn(-c2ccccc2)c2ccccc12`, the CC50 in data set [1] is more than 10 µM. In addition, the EC50 in the data set on Plasmodium falciparum [2] turned out to be 0.717 µM; in the data set with Plasmodium falciparum [3], 0.226 µM.
The molecule `COC(=O)C1=C(C)N(C)C(C)=C(C(=O)OC)C1c1ccc([N+](=O)[O-])cc1` registered a CC50 in data set [1] of more than 100 µM. The EC50 in the data set with Plasmodium falciparum [2] is 0.633 µM; in the data set on Plasmodium falciparum [3] it was 2.26 µM.
The corresponding values for `O=C(C[n+]1cc(-c2ccccc2)n2c1CCC2)c1ccc(C2CCCCC2)cc1` are 17.1 µM, 0.312 µM and 0.393 µM.
The corresponding values for `S=C(NCc1ccco1)NC1CC2CCC(C1)N2Cc1ccccc1` (stereo not given) are more than 100 µM, 0.865 µM and 2.24 µM.
The corresponding values for `CC1(C)CC(NC(=O)Cc2ccc(Cl)cc2)CC(C)(C)N1` are more than 100 µM, more than 12.5 µM and 2.3 µM.

The values above are taken from ChEMBL document CHEMBL1156829 (Proc Natl Acad Sci U S A, 2008).
